Here are results for 14 compounds from ChEMBL document CHEMBL4265969, “Design, synthesis and biological evaluation of (2S,3R,4R,5S,6R)-5-fluoro-6-(hydroxymethyl)-2-aryltetrahydro-2H-pyran-3,4-diols as potent and orally active SGLT dual inhibitors” (Bioorg Med Chem Lett, 2018).

The inhibition is how much of the control response was suppressed. As usually defined, the half-life is the time in which the quantity being followed falls by half. By IC50 is commonly meant the concentration needed to halve the response being measured. One may read the Tmax as the time at which the peak concentration occurs. Broadly, the bioavailability is the share of a dose that reaches the circulation, judged against a reference dose that is usually intravenous. As usually defined, the Cmax is the maximum level reached in the sampled fluid or tissue. By clearance is commonly meant the rate of elimination divided by the concentration. What is called AUC(0-inf) is total exposure, with the tail of the curve extrapolated.

Series [1] deals with T1, Sodium/glucose cotransporter 2 (Homo sapiens) (UniProt P31639).
T1 sequence (whole entry): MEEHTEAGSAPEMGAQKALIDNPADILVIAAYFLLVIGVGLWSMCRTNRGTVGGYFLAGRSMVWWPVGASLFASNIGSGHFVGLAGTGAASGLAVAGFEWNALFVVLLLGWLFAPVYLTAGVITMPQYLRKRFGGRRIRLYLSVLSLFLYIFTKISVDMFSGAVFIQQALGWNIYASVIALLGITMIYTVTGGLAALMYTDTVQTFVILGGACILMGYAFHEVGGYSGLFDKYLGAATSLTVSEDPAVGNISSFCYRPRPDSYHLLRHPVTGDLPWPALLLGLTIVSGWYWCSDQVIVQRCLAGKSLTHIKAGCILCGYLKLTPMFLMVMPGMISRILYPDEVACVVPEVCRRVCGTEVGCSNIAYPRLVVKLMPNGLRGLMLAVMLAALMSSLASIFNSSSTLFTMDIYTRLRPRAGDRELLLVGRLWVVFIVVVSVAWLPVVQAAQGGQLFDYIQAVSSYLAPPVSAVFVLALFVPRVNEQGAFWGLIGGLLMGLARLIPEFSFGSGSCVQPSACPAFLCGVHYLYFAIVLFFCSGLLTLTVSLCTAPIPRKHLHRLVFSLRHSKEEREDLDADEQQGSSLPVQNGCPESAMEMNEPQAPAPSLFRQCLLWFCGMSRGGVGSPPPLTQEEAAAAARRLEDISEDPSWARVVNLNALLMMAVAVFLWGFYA
The experiment in a line: Inhibition of human kidneyl SGLT2 expressed in CHOK1 cells assessed as reduction in Na-dependent [14C]-AMG uptake at 0.3 uM preincubated for 10 mins followed by [14C]-AMG addition measured after 2 hrs by TopCount method relative to control. It counts as cell-based.

Series [2] concerns the target T2, SGLT1 (sodium/glucose cotransporter 1) (Homo sapiens, UniProt P13866).
T2 sequence (P13866 whole entry): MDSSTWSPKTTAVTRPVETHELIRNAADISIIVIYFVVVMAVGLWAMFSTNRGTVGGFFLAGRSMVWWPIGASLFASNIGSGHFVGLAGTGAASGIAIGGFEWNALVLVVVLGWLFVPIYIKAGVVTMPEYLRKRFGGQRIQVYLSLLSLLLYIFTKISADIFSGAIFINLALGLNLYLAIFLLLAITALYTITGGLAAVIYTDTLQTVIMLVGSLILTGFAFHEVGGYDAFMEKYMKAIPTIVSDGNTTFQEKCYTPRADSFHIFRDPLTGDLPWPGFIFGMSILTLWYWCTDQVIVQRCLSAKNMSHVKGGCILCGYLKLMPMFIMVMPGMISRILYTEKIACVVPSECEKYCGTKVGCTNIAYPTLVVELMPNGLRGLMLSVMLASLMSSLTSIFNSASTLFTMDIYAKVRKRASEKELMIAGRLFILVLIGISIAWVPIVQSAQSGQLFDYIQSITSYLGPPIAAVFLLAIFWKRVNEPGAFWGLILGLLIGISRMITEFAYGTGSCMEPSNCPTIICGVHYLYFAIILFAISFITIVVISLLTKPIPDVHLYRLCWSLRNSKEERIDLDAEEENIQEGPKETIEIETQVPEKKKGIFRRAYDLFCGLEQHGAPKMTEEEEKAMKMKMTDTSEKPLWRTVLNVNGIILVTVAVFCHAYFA
The experiment in a line: Inhibition of human small intestinal SGLT1 expressed in CHOK1 cells assessed as reduction in Na-dependent [14C]-AMG uptake at 0.3 uM preincubated for 10 mins followed by [14C]-AMG addition measured after 2 hrs by TopCount method relative to control. Type of series: cell-based. To be noted: CHO-K1 cells expressing human SGLT1, probe [14C]-AMG.

Series [3] can be described thus: Half life in human hepatocytes at 1 uM. Type of series: ADME, cell-based, Hepatocyte.
A short description of series [4]: Half life in monkey hepatocytes at 1 uM. It counts as ADME, cell-based, Macaca mulatta, Hepatocyte. The conditions noted are these: rhesus monkey.
Series [5] deals with T3, Sodium/glucose cotransporter 2 (Homo sapiens, UniProt P31639).
T3 sequence (P31639 whole entry): T1 sequence (whole entry)
The experiment in a line: Inhibition of human kidneyl SGLT2 expressed in CHOK1 cells assessed as reduction in Na-dependent [14C]-AMG uptake preincubated for 10 mins followed by [14C]-AMG addition measured after 2 hrs by TopCount method. Type of series: cell-based.

Series [6] is described as follows: Metabolic stability in human liver microsomes at 1 uM after 10 mins in presence of NADPH. To be noted: read-out: Stability. It counts as ADME, microsome. (Liver microsomes are a subcellular fraction often used to study metabolism.)
Series [7] can be described thus: Tmax in Sprague-Dawley rat at 10 mg/kg, po. It counts as ADME, organism-based. To be noted: in vivo.
A short description of series [8]: Metabolic stability in rat liver microsomes at 1 uM after 10 mins in presence of NADPH. The conditions noted are these: read-out: Stability. Type of series: ADME, microsome.
Series [9] in a line: Volume of distribution at steady state in Sprague-Dawley rat at 2 mg/kg, iv. It counts as ADME, organism-based. The conditions noted are these: in vivo, read-out: Vdss.
The nature of series [10]: Metabolic stability in mouse liver microsomes at 1 uM after 10 mins in presence of NADPH. Type of series: ADME, microsome. The conditions noted are these: read-out: Stability.
A short description of series [11]: Oral bioavailability in Sprague-Dawley rat at 10 mg/kg. It counts as ADME, organism-based. The conditions noted are these: in vivo.
Series [12] in a line: Cmax in Sprague-Dawley rat at 10 mg/kg, po. Type of series: ADME, organism-based. Further details: dose 10 mg/kg, route oral. The conditions noted are these: in vivo.
Series [13] can be described thus: Clearance in Sprague-Dawley rat at 2 mg/kg, iv. Type of series: ADME, organism-based. To be noted: in vivo.
Series [14] can be described thus: AUC (0 to infinity) in Sprague-Dawley rat at 10 mg/kg, po. It counts as ADME, organism-based. Also on record: dose 10 mg/kg, route oral, time infinity. The conditions noted are these: in vivo.
Series [15] is described as follows: Half life in Sprague-Dawley rat at 2 mg/kg, iv. It counts as ADME, organism-based. To be noted: in vivo.
The nature of series [16]: Half life in Sprague-Dawley rat at 10 mg/kg, po. It counts as ADME, organism-based. To be noted: in vivo.
A short description of series [17]: Half life in dog hepatocytes at 1 uM. Type of series: ADME, cell-based, Canis lupus familiaris, Hepatocyte.
Series [18] can be described thus: Half life in Sprague-Dawley rat hepatocytes at 1 uM. Type of series: ADME, cell-based, Hepatocyte.

For the compound `Cc1ccc([C@@H]2O[C@H](CO)[C@@H](F)[C@H](O)[C@H]2O)cc1Cc1cc2c(s1)CCN(C#N)C2`, in series [1], the inhibition stood at 76%.

On to `Cc1ccc([C@@H]2O[C@H](CO)[C@@H](F)[C@H](O)[C@H]2O)cc1Cc1cc2c(s1)CCN(C(=O)C1CCCC1)C2`, for which the inhibition at 2 h, 0.3 µM in series [2] turned out to be 49%. Besides, the inhibition in series [1] stood at 59%.

On to `Cc1ncc2n1-c1ccc(Cl)cc1C(c1ccccc1F)=NC2` [MIDAZOLAM], for which the half-life at 1 µM was 1 h in series [3] and 1.4 h in [4].

On to `COc1cc(C)c(Cc2cc3c(s2)CCN(C#N)C3)cc1[C@@H]1O[C@H](CO)[C@@H](F)[C@H](O)[C@H]1O`, for which the IC50 in series [5] came out at 5.3 nM.

In the case of `OC[C@H]1O[C@@H](c2cc(Cc3ccc4c(c3)OCCO4)c(O)c3c2OCC3)[C@H](O)[C@@H](O)[C@@H]1F`, the inhibition at 2 h, 0.3 µM in series [2] was 31%. Moreover, in [1], the inhibition turned out to be 26%.

In the case of `OC[C@H]1O[C@@H](c2cc(Cc3ccc4c(c3)OCCO4)c3c(c2O)CCO3)[C@H](O)[C@@H](O)[C@@H]1F`, the remaining at 10 min, 1 µM in series [6] is 97%; in series [8], 64%; in [10] it was 97%. The Tmax in series [7] amounted to 0.25 h. Besides, in series [9], the Vd came out at 1.22 L/kg. Also, the bioavailability in series [11] stood at 4%. The same compound displayed a Cmax in series [12] of 168 ng/mL. Besides, in series [13], the clearance was 28.1 mL/min/kg. Besides, in series [14], the AUC(0-inf) is 307 ng·h/mL. The same compound showed a half-life in [15] of 0.31 h.

Consider `Cc1cc(O)c([C@@H]2O[C@H](CO)[C@@H](F)[C@H](O)[C@H]2O)cc1Cc1cc2c(s1)CCN(C(=O)N1CCCC1)C2`, for which, in series [5], the IC50 came to 13.6 nM. Moreover, the remaining at 10 min, 1 µM in series [6] is 71%; in [8], 82%; in series [10], 74%.

Consider `Cc1cc(O)c([C@@H]2O[C@H](CO)[C@@H](F)[C@H](O)[C@H]2O)cc1Cc1cc2c(s1)CCN(C#N)C2`, for which, in series [5], the IC50 stood at 2.6 nM. The values for the remaining at 10 min, 1 µM in series [6], in series [8] and in series [10] were 95%, 79% and 91%, respectively. The Tmax in series [7] was found to be 2.2 h. Further, the Vd in series [9] stood at 3.79 L/kg. Moreover, the half-life in series [16] was 1.44 h; in series [15], 0.99 h. The compound also registered a bioavailability in series [11] of 5%. Moreover, in [12], the Cmax is 13.7 ng/mL. This compound returned a clearance in [13] of 149 mL/min/kg. This compound also showed an AUC(0-inf) in [14] of 44.6 ng·h/mL.

Regarding `COc1c([C@@H]2O[C@H](CO)[C@@H](F)[C@H](O)[C@H]2O)cc(Cc2ccc3c(c2)SCCO3)c2c1CCO2`, in series [5], the IC50 is 8.3 nM. Besides, the remaining at 10 min, 1 µM amounted to 73% in [6], 12% in series [8] and 61% in series [10].

As to `Cc1cc(O)c([C@@H]2O[C@H](CO)[C@@H](F)[C@H](O)[C@H]2O)cc1Cc1cc2c(s1)CCN(C(=O)c1nccs1)C2`, the results for the remaining at 10 min, 1 µM in series [6], in series [8] and in series [10] were 69%, 91% and 66%, respectively.

As for `Cc1ccc([C@@H]2O[C@H](CO)[C@@H](F)[C@H](O)[C@H]2O)cc1Cc1cc2c(s1)CCN(C(=O)c1nccs1)C2`, in [2], the inhibition at 2 h, 0.3 µM came to 39%. Also, the inhibition in series [1] was determined as 73%.

On to `CCOC(=O)N1CCc2sc(Cc3cc([C@@H]4O[C@H](CO)[C@@H](F)[C@H](O)[C@H]4O)c(O)cc3C)cc2C1`, for which the remaining at 10 min, 1 µM in [6] came out at 80%; in series [8], 78%; in series [10] it was 86%.

Consider `COc1c(Cc2ccc3c(c2)OCCO3)cc([C@@H]2O[C@H](CO)[C@@H](F)[C@H](O)[C@H]2O)c2c1CCO2`, for which the IC50 in series [5] is 7.5 nM. Moreover, the results for the remaining at 10 min, 1 µM in [6], in series [8] and in [10] were 91%, 2% and 94%, respectively.

In the case of `O=C(O)Cc1ccccc1Nc1c(Cl)cccc1Cl` [DICLOFENAC], the half-life at 1 µM is 5.2 h in series [17], 0.7 h in series [3], 0.8 h in series [18] and 1 h in series [4].
